Experimental data taken from patent US11331327B2, “Antibacterial use of halogenated salicylanilides” (UNION therapeutics A/S, priority 2014, dated 2022).
In brackets after ≈: the same amount, converted by molar mass. Like-named read-outs stand apart in the source and are kept apart here.

System: S. aureus clinical isolates and S. aureus ATCC 29213
Assay: MIC assay according to CLSI criteria, Example 2, S. aureus strains
Format: cell-based, Staphylococcus aureus
Conditions: Staphylococcus aureus, read-out: MIC
Protocol: Strains were conserved in Luria Bertani (LB) Broth (S. aureus) or Brain Heart Infusion (BHI) (S. pyogenes) supplemented with glycerol 15% (v/v) at −80° C., and reactivated by isolation on LB (S. aureus) or BHI (S. pyogenes) agar plates. Strains were cultivated in Mueller Hinton (MH) Broth-cation adjusted (S. aureus) or BHI (S. pyogenes). All strains were cultivated aerobically (microaerobically for S. pyogenes strains) at 37° C.
Bacterial cultures were stopped in their exponential growth phase and plates were inoculated with the approximate concentration of 5×10^5 cells per well. Plates were incubated at 37° C. for 18 hours (S. aureus) or 24 hours (S. pyogenes).

C/C(=C\C(=O)OCCCCCCCCC(=O)O)C[C@@H]1OC[C@H](C[C@@H]2O[C@H]2[C@@H](C)[C@H](C)O)[C@@H](O)[C@H]1O [Mupirocin]
MIC (ATCC29213, strain 9-1862936): 0.25 µg/mL (≈ 0.499 µM) | MIC (ATCC29213, strain 9-2625962): 0.5 µg/mL (≈ 0.999 µM) | MIC (ATCC29213, strain 9-2642158): 0.25 µg/mL (≈ 0.499 µM) | MIC (ATCC29213, strain 9-2955245): 0.25 µg/mL (≈ 0.499 µM) | MIC (ATCC29213, strain 9-26422166): 0.25 µg/mL (≈ 0.499 µM) | MIC (ATCC29213, strain 000040C): 0.25 µg/mL (≈ 0.499 µM) | MIC (ATCC29213, strain 000041C): 0.25 µg/mL (≈ 0.499 µM) | MIC (ATCC29213, strain 000274T): 0.5 µg/mL (≈ 0.999 µM) | MIC (ATCC29213, strain 114660U): 0.25 µg/mL (≈ 0.499 µM) | MIC (ATCC29213, strain 115015T): 0.5 µg/mL (≈ 0.999 µM) | MIC (ATCC29213, strain 115242C): 0.25 µg/mL (≈ 0.499 µM) | MIC (ATCC29213, strain 115263C): 0.25 µg/mL (≈ 0.499 µM) | MIC (ATCC29213, strain 115268C): 0.5 µg/mL (≈ 0.999 µM) | MIC (ATCC29213, strain 115273C): 0.25 µg/mL (≈ 0.499 µM) | MIC (ATCC29213, strain 115295C): 0.25 µg/mL (≈ 0.499 µM) | MIC (ATCC29213, strain 115303C): 0.25 µg/mL (≈ 0.499 µM) | MIC (ATCC29213, strain 115370U): 0.125 µg/mL (≈ 0.25 µM) | MIC (ATCC29213, strain 115427C): 0.25 µg/mL (≈ 0.499 µM) | MIC (ATCC29213, strain 115445C): 0.25 µg/mL (≈ 0.499 µM) | MIC (ATCC29213, strain 115561C): 0.5 µg/mL (≈ 0.999 µM) | MIC (ATCC29213, strain 115584D): 0.5 µg/mL (≈ 0.999 µM) | MIC (ATCC29213, strain 115628T): 0.25 µg/mL (≈ 0.499 µM) | MIC (ATCC29213, strain 115690C): 0.125 µg/mL (≈ 0.25 µM) | MIC (ATCC29213, strain 115691T): 0.25 µg/mL (≈ 0.499 µM) | MIC (ATCC29213, strain 115740E): 0.25 µg/mL (≈ 0.499 µM) | MIC (ATCC29213, strain 115810E): 0.25 µg/mL (≈ 0.499 µM) | MIC (ATCC29213, strain 115903T): 0.5 µg/mL (≈ 0.999 µM) | MIC (ATCC29213, strain 116122T): 0.5 µg/mL (≈ 0.999 µM) | MIC (ATCC29213, strain ATCC 29213): 0.125 µg/mL (≈ 0.25 µM) | MIC (ATCC29213, strain E5-1029252): 0.5 µg/mL (≈ 0.999 µM) | MIC (ATCC29213, strain E5-1029558): 0.5 µg/mL (≈ 0.999 µM) | MIC (ATCC29213, strain E5-1030440): 0.25 µg/mL (≈ 0.499 µM) | MIC (ATCC29213, strain E5-1030469): 0.25 µg/mL (≈ 0.499 µM) | MIC (ATCC29213, strain E5-1030472): 0.5 µg/mL (≈ 0.999 µM) | MIC (ATCC29213, strain E5-1030482): 0.25 µg/mL (≈ 0.499 µM) | MIC (ATCC29213, strain E5-1033076 (first line, r202)): 0.25 µg/mL (≈ 0.499 µM) | MIC (ATCC29213, strain E5-1033076 (second line, r203)): 0.25 µg/mL (≈ 0.499 µM) | MIC (ATCC29213, strain E5-1033088): 0.25 µg/mL (≈ 0.499 µM) | MIC (ATCC29213, strain E5-1033091): 0.25 µg/mL (≈ 0.499 µM) | MIC (ATCC29213, strain E5-1035277): 0.5 µg/mL (≈ 0.999 µM) | MIC (ATCC29213, strain E5-1035284): 0.25 µg/mL (≈ 0.499 µM) | MIC (ATCC29213, strain E5-1035775): 0.25 µg/mL (≈ 0.499 µM) | MIC (ATCC29213, strain E5-1035779): 0.5 µg/mL (≈ 0.999 µM) | MIC (ATCC29213, strain E5-1037958): 0.5 µg/mL (≈ 0.999 µM) | MIC (ATCC29213, strain E5-1037971): 0.25 µg/mL (≈ 0.499 µM) | MIC (ATCC29213, strain E5-1038279): 0.25 µg/mL (≈ 0.499 µM) | MIC (ATCC29213, strain E5-1038286): 0.5 µg/mL (≈ 0.999 µM) | MIC (ATCC29213, strain E5-1038294): 0.25 µg/mL (≈ 0.499 µM) | MIC (ATCC29213, strain E5-1039684): 0.25 µg/mL (≈ 0.499 µM) | MIC (ATCC29213, strain E5-1039697): 0.25 µg/mL (≈ 0.499 µM) | MIC (ATCC29213, strain E5-1041977): 0.5 µg/mL (≈ 0.999 µM) | MIC (ATCC29213, strain E5-1041979): 0.5 µg/mL (≈ 0.999 µM) | MIC (ATCC29213, strain E5-1041980): 0.25 µg/mL (≈ 0.499 µM) | MIC (ATCC29213, strain E5-1041987): 0.25 µg/mL (≈ 0.499 µM) | MIC (ATCC29213, strain E5-1043184): 0.5 µg/mL (≈ 0.999 µM) | MIC (ATCC29213, strain E5-1043668): 0.25 µg/mL (≈ 0.499 µM) | MIC (ATCC29213, strain E5-1045179): 0.25 µg/mL (≈ 0.499 µM) | MIC (ATCC29213, strain E5-1046019): 0.25 µg/mL (≈ 0.499 µM) | MIC (ATCC29213, strain E5-1046020): 0.25 µg/mL (≈ 0.499 µM) | MIC (ATCC29213, strain E5-1046039): 0.25 µg/mL (≈ 0.499 µM) | MIC (ATCC29213, strain E5-1046070): 0.5 µg/mL (≈ 0.999 µM) | MIC (ATCC29213, strain E5-1046074): 0.25 µg/mL (≈ 0.499 µM) | MIC (ATCC29213, strain E5-1046085): 0.5 µg/mL (≈ 0.999 µM) | MIC (ATCC29213, strain E5-1046096): 0.5 µg/mL (≈ 0.999 µM) | MIC (ATCC29213, strain E5-1046296): 1 µg/mL (≈ 2 µM) | MIC (ATCC29213, strain E5-1046297): 0.25 µg/mL (≈ 0.499 µM) | MIC (ATCC29213, strain E5-1046298): 0.25 µg/mL (≈ 0.499 µM) | MIC (ATCC29213, strain E5-1046723): 0.25 µg/mL (≈ 0.499 µM) | MIC (ATCC29213, strain E5-1047585): 0.25 µg/mL (≈ 0.499 µM) | MIC (ATCC29213, strain E5-1047606): 0.5 µg/mL (≈ 0.999 µM) | MIC (ATCC29213, strain E5-1047924): 0.5 µg/mL (≈ 0.999 µM) | MIC (ATCC29213, strain E5-1048204): 0.25 µg/mL (≈ 0.499 µM) | MIC (ATCC29213, strain E5-1048428): 0.25 µg/mL (≈ 0.499 µM) | MIC (ATCC29213, strain E5-1048654): 0.25 µg/mL (≈ 0.499 µM) | MIC (ATCC29213, strain E5-1048670): 0.5 µg/mL (≈ 0.999 µM) | MIC (ATCC29213, strain EEFIC 01): 0.125 µg/mL (≈ 0.25 µM) | MIC (ATCC29213, strain EEFIC 02): 0.125 µg/mL (≈ 0.25 µM) | MIC (ATCC29213, strain K000772): 0.125 µg/mL (≈ 0.25 µM) | MIC (ATCC29213, strain K000796): 0.5 µg/mL (≈ 0.999 µM) | MIC (ATCC29213, strain K000863): 0.5 µg/mL (≈ 0.999 µM) | MIC (ATCC29213, strain K000864): 0.25 µg/mL (≈ 0.499 µM) | MIC (ATCC29213, strain K000866): 0.5 µg/mL (≈ 0.999 µM) | MIC (ATCC29213, strain K115498): 0.5 µg/mL (≈ 0.999 µM) | MIC (ATCC29213, strain K115688): 0.25 µg/mL (≈ 0.499 µM) | MIC (ATCC29213, strain K115689): 0.25 µg/mL (≈ 0.499 µM) | MIC (ATCC29213, strain R000019): 0.5 µg/mL (≈ 0.999 µM) | MIC (ATCC29213, strain R000020): 0.5 µg/mL (≈ 0.999 µM) | MIC (ATCC29213, strain R000024): 0.5 µg/mL (≈ 0.999 µM) | MIC (ATCC29213, strain U115579): 0.5 µg/mL (≈ 0.999 µM) | MIC (ATCC 29213 / MRSA, strain MRSA 01): 0.25 µg/mL (≈ 0.499 µM) | MIC (ATCC 29213 / MRSA, strain MRSA 02): 0.25 µg/mL (≈ 0.499 µM) | MIC (ATCC 29213 / MRSA, strain MRSA 03): 0.25 µg/mL (≈ 0.499 µM) | MIC (ATCC 29213 / MRSA, strain MRSA 04): 0.25 µg/mL (≈ 0.499 µM) | MIC (ATCC 29213 / MRSA, strain MRSA 05): 0.125 µg/mL (≈ 0.25 µM) | MIC (ATCC 29213 / MRSA, strain MRSA 06): 0.25 µg/mL (≈ 0.499 µM) | MIC (ATCC 29213 / MRSA, strain MRSA 07): 0.25 µg/mL (≈ 0.499 µM) | MIC (ATCC 29213 / MRSA, strain MRSA 08): > 16 µg/mL | MIC (ATCC 29213 / MRSA, strain MRSA 09): 0.25 µg/mL (≈ 0.499 µM) | MIC (ATCC 29213 / MRSA, strain MRSA 10): 0.25 µg/mL (≈ 0.499 µM) | MIC (ATCC 29213 / MRSA, strain MRSA 11): 0.5 µg/mL (≈ 0.999 µM) | MIC (ATCC 29213 / MRSA, strain MRSA 12): 0.125 µg/mL (≈ 0.25 µM) | MIC (ATCC 29213 / MRSA, strain MRSA 13): 0.25 µg/mL (≈ 0.499 µM) | MIC (ATCC 29213 / MRSA, strain MRSA 14): 0.125 µg/mL (≈ 0.25 µM)
